Measured values: patent US9745357B2, “Peptides used for treating cancers and, in particular, chronic lymphoid leukaemia” (Centre National de la Recherche Scientifique, priority 2009, dated 2017)
No end group written: not given here.

Key:
[1] = tested on: cap-dependent translation (eIF4E-dependent); assay: Effect of the peptides on translation of capped luciferase mRNA in rabbit reticulocyte lysate; type: biochemical; conditions: 50 μM peptide, compared with DMSO = 100%; FIG. 2
Procedure: The peptides having the IRS motif and the sequences of 4EBPlike type (A1WT, BPSgWT, and BP2WT) or the mutant sequences of 4EPBlike type (A1YALA, BPSgYALA, BP2YALA) are incubated in rabbit reticulocyte lysate containing capped mRNAs encoding luciferase, an enzyme of which the activity can be easily assayed. The translational activity is directly proportional to the activity of the luciferase produced. The translational activity in the presence of peptide is compared with that obtained during the addition of an equivalent volume of DMSO, considered to be 100%.
The peptides were produced, purified by HPLC (purity>95%), and freeze-dried by Thermofisher Scientific. The peptides were then dissolved at 10 mM in DMSO.
The capped mRNAs encoding Renilla luciferase (Luc R) were produced by the T7 Message Machine Kit system (Ambion) from the pGb-Eg2-410Δ2-hxG-A65 plasmid linearized with EcoRV (Legagneux V, Omilli F, Osborne HB (1995) Substrate-specific regulation of RNA deadenylation in Xenopus embryo and activated egg extracts. RNA 1: 1001-1008).
The Luc R mRNAs were translated for one hour at 30° C. in rabbit reticulocyte lysate (Flexi Rabbit Reticulocyte Lysate System, Promega) in the presence of 50 μM of peptide. The luciferase activity was determined using the Renilla luciferase assay (Promega) on the Tristar LB941 luminometer (Berthold).
A capped mRNA (having a cap at the 5′ end) encoding luciferase, a protein which can be easily assayed by measuring its activity, was translated in the presence of these various peptides in rabbit reticulocyte lysate (FIG. 2). The luciferase activity measured is directly proportional to the amount of luciferase protein produced and therefore to the cap-dependent translational activity. Since the peptides are dissolved in DMSO, it was important to test the effect of DMSO on the translation. […] The translational activity in the presence of peptide was compared with that obtained when an equal volume of DMSO is added, considered to be equal to 100%.

[2] = tested on: marginal zone lymphoma (MZL) cells; type: cell-based, human; conditions: 4 h, 40 μM
Procedure: (§1) FIG. 7: Activity of the A1WT peptide on cells of lymphocytic, lymphoid, gastric, colonic or renal origin The cells are prepared and placed in culture (see Materials and Methods) and then incubated for 4 H with the A1WT or A1 YALA peptide. The percentage cell survival corresponds to the percentage of cells labeled neither with annexin nor with propidium iodide, evaluated by flow cytometry. The names of the pathological conditions from which the patients from whom the samples are taken are suffering are indicated under the figure. The control T (L.T.) and B (L.B.) lymphocytes are taken from patients suffering from a disease not related to a lymphocytic pathological condition (hemochromatosis).
(§2) The cells were cultured in a culture medium composed either of RPMI 1640 (B lymphocytes) or of DMEM (COS7, HCT116, HGT1, 293, HeLa) containing 10% of FCS (fetal calf serum, 1% of penicillin-streptomycin and 1% of glutamine, Gibco BRL). The cells are distributed in a 24-well plate and cultured at 37° C. in a humid atmosphere under 5% CO2.
(§3) 400 μl of cell suspension (1×10^6 cells/ml) per well were treated for 4 h or 24 h with various concentrations of peptides. The test for activity of the peptides in the presence of emetine (FIG. 6) was carried out by preincubating the cells with 100 μM of emetine for one hour before the addition of peptide.
(§4) After the cells have been washed with PBS, they were analyzed using the Annexin V-FITC IP system according to the supplier's recommendations (Beckman Coulter).
(§5) The cells of lymphoid origin all originated from samples taken from patients suffering from various pathological conditions classified according to the seat of the tumor proliferation. This proliferation takes place either in the bone marrow, for CLL, B-cell prolymphocytic leukemia and T-cell acute lymphoblastic leukemia (T-ALL); or in the lymph nodes for mantle cell lymphoma and marginal zone lymphoma. A classification can also be carried out according to the cell type affected: B lymphocytes (CLL, B-cell prolymphocytic leukemia, mantle cell lymphoma and marginal zone lymphoma) or T lymphocytes (T-ALL).

[3] = tested on: mantle cell lymphoma cells; type: cell-based, human; conditions: 4 h, 40 μM
Procedure: as §1, §2, §3, §4, §5

[4] = tested on: T lymphocytes from a patient suffering from T-cell acute lymphoblastic leukemia (T-ALL); type: cell-based, human; conditions: FIG. 7, 4 H incubation
Procedure: as §1, §2, §3, §4, §5

[5] = tested on: B-cell prolymphocytic leukemia cells; type: cell-based, human; conditions: 24 h
Procedure: as §1, §2, §3, §4, §5

[6] = tested on: Jok cells (cell line derived from B lymphocytes); assay: Cell survival of Jok cells, annexin/propidium iodide flow cytometry; type: cell-based, human
Procedure: The cells are treated as indicated for FIG. 7, with the CLL cells, control T lymphocytes and Jok lymphocytes, which are incubated with the A1 WT IRS peptide and derivatives thereof described in table 1. The Jok cells were incubated either with 20 μM (JOK 20) or with 40 μM (JOK 40) of each of the peptides. In the interests of simplifying the legend, the A1 WT IRS peptide is referred to as “WT”. Likewise, the derivatives thereof are referred to by the name of the mutations (A1 K3I IRS is referred to as “K3I”, for example).
as §2, §3, §4
The peptides were tested on B lymphocytes from patients suffering from chronic lymphoid leukemia, control T lymphocytes, or Jok cells (cell line derived from B lymphocytes). The experiment was repeated three times for each type of cell tested.

[7] = tested on: control T lymphocytes (patients suffering from hemochromatosis); assay: Cell survival of control T lymphocytes, annexin/propidium iodide flow cytometry; type: cell-based, human; conditions: 40 μM, 4 hours; FIG. 9

RRKYGRDFLLRFRYIRS [A1 WT IRS, RRKYGRDFLLRFRYIRS]
inhibition of translation (luciferase activity) [1]: more substantially inhibits the translation
survival rate [2]: approximately 30%
survival rate [3]: approximately 30%
effect on cell survival [4]: as great as for the CLL cells
cell survival [5]: 20%
cell effect Jok 20 (survival) ([6]; 20 μM peptide, 4 hours of culture, cells not labeled with annexin or propidium iodide): + (+: survival <25%)
cell effect Jok 40 (survival) ([6]; 40 μM peptide, 4 hours of culture, cells not labeled with annexin or propidium iodide): + (+: survival <25%)
effect of the peptide on cell mortality, in words (relative to A1 WT IRS) ([6]; 40 μM, 4 hours, FIG. 9): high cell mortality
effect of the peptide on cell mortality, in words (relative to A1 WT IRS) [7]: the survival rate is higher in the control T cells
